# Patent EP0238178B1, “Novel derivatives of erythromycylamine” (ELI LILLY AND COMPANY, priority 1986, dated 1987)
# Key:
# Escherichia coli EC14 = assay: MIC, standard agar-dilution assay; type: cell-based; conditions: read-out: MIC
# [1] = system: Streptococcus sp. group D 2041; assay: MIC, standard agar-dilution assay; type: cell-based; conditions: read-out: MIC
# [2] = system: Staphylococcus aureus X1.1; assay: MIC, standard agar-dilution assay; type: cell-based; conditions: read-out: MIC
# [3] = system: Staphylococcus aureus V41; assay: MIC, standard agar-dilution assay; type: cell-based; conditions: Staphylococcus aureus V41, Penicillin-resistant strain, inducibly-resistant to erythromycin; read-out: MIC
# From the text: (§1) In addition to excellent in vitro activity against erythromycin-sensitive bacteria, several members of this new series have shown in vitro activity against erythromycin-resistant strains. These include strains which are inducibly-resistant to erythromycin (S.. aureus V41 and X400 and S. epidermidis EPI1) and even strains which are constitutively-resistant (S. epidermidis 270).
# [4] = system: Staphylococcus aureus X400; assay: MIC, standard agar-dilution assay; type: cell-based; conditions: Staphylococcus aureus X400, Methicillin-resistant strain, inducibly-resistant to erythromycin; read-out: MIC
# From the text: as §1
# [5] = system: Staphylococcus epidermidis 270; assay: MIC, standard agar-dilution assay; type: cell-based; conditions: Staphylococcus epidermidis 270, constitutively-resistant to erythromycin
# From the text: as §1
# [6] = system: Streptococcus sp. group D X66; assay: MIC, standard agar-dilution assay; type: cell-based; conditions: Streptococcus sp. group D X66; read-out: MIC
# [7] = system: Haemophilus influenzae C.L.; assay: MIC, standard agar-dilution assay; type: cell-based; conditions: Ampicillin-sensitive strain, read-out: MIC
# [8] = system: Staphylococcus aureus S13E; assay: MIC, standard agar-dilution assay; type: cell-based
# [9] = system: Staphylococcus epidermidis 222; assay: MIC, standard agar-dilution assay; type: cell-based; conditions: read-out: MIC
# [10] = system: Streptococcus pyogenes C203; assay: MIC, standard agar-dilution assay; type: cell-based; conditions: read-out: MIC
# [11] = system: Streptococcus pneumoniae Park I; assay: MIC, standard agar-dilution assay; type: cell-based; conditions: read-out: MIC
# Streptococcus pneumoniae = assay: Experimental bacterial infection in mice, ED50; type: in vivo; conditions: Streptococcus pneumoniae, po, two doses, dose protecting 50% of animals, read-out: Oral ED50
# Method: (§2) The new derivatives of this invention have also shown in vivo antimicrobial activity against experimental bacterial infections. When two doses of test compound were administered to mice in experimental infections, the activity observed was measured as an EDso value [effective dose in mg/kg to protect 50% of the test animals: see Warren Wick, et al., J. Bacteriol. 81, 233-235 (1961)].
# Staphylococcus aureus = assay: Experimental bacterial infection in mice, ED50; type: in vivo; conditions: Staphylococcus aureus, po, two doses, dose protecting 50% of animals, read-out: Oral ED50
# Method: as §2
# Streptococcus pyogenes = assay: Experimental bacterial infection in mice, ED50; type: in vivo; conditions: Streptococcus pyogenes, po, two doses, dose protecting 50% of animals, read-out: Oral ED50
# Method: as §2
# [12] = system: Klebsiella pneumoniae X68; assay: MIC, standard agar-dilution assay; type: cell-based; conditions: read-out: MIC
# [13] = system: Staphylococcus epidermidis EPI1; assay: MIC, standard agar-dilution assay; type: cell-based
# From the text: as §1
# [14] = system: Haemophilus influenzae 76; assay: MIC, standard agar-dilution assay; type: cell-based; conditions: Haemophilus influenzae 76, Ampicillin-resistant strain; read-out: MIC
SMILES,MIC (Escherichia coli EC14) [µg/mL],MIC [1] [µg/mL],MIC [2] [µg/mL],MIC [3] [µg/mL],MIC [4] [µg/mL],MIC [5] [µg/mL],MIC [6] [µg/mL],MIC [7] [µg/mL],MIC [8] [µg/mL],MIC [9] [µg/mL],MIC [10] [µg/mL],MIC [11] [µg/mL],ED50 (Streptococcus pneumoniae) [mg/kg],ED50 (Staphylococcus aureus) [mg/kg],ED50 (Streptococcus pyogenes) [mg/kg],MIC [12] [µg/mL],MIC [13] [µg/mL],MIC [14] [µg/mL]
CCCCC/C=C\CCCN[C@@H]1[C@H](C)[C@@H](O)[C@](C)(O)[C@@H](CC)OC(=O)[C@H](C)[C@@H](O[C@H]2C[C@@](C)(OC)[C@@H](O)[C@H](C)O2)[C@H](C)[C@@H](O[C@@H]2O[C@H](C)C[C@H](N(C)C)[C@H]2O)[C@](C)(O)C[C@H]1C [Compound 13],128,1,0.25,8,8,32,0.06,2,0.25,0.125,< 0.008,< 0.008,–,–,–,–,–,–
"CCCCC/C=C/CCCN[C@@H]1[C@H](C)[C@@H](O)[C@](C)(O)[C@@H](CC)OC(=O)[C@H](C)[C@@H](O[C@H]2C[C@@](C)(OC)[C@@H](O)[C@H](C)O2)[C@H](C)[C@@H](O[C@@H]2O[C@H](C)C[C@H](N(C)C)[C@H]2O)[C@](C)(O)C[C@H]1C [Compound 14, 9-Deoxo-9-[(trans-dec-4-enyl)amino]erythromycin]",128,2,0.5,8,16,32,0.125,2,0.25,0.25,< 0.008,< 0.008,–,–,–,–,–,–
CC[C@H]1OC(=O)[C@H](C)[C@@H](O[C@H]2C[C@@](C)(OC)[C@@H](O)[C@H](C)O2)[C@H](C)[C@@H](O[C@@H]2O[C@H](C)C[C@H](N(C)C)[C@H]2O)[C@](C)(O)C[C@@H](C)[C@H](NCC#Cc2ccccc2)[C@H](C)[C@@H](O)[C@]1(C)O [Compound 18],–,1,1,16,32,64,0.25,4,0.5,0.5,< 0.008,< 0.008,33.9,> 50,26.7,–,–,–
"CC[C@H]1OC(=O)[C@H](C)[C@@H](O[C@H]2C[C@@](C)(OC)[C@@H](O)[C@H](C)O2)[C@H](C)[C@@H](O[C@@H]2O[C@H](C)C[C@H](N(C)C)[C@H]2O)[C@](C)(O)C[C@@H](C)[C@H](N(C)C2CCCCC2)[C@H](C)[C@@H](O)[C@]1(C)O [Compound 71, 9-Deoxo-9-[(N-cyclohexyl-N-methyl)amino]erythromycin]",> 128,128,16,> 128,> 128,–,8,32,16,8,1,0.125,> 50,> 50,> 50,> 128,> 128,32
"CC[C@H]1OC(=O)[C@H](C)[C@@H](O[C@H]2C[C@@](C)(OC)[C@@H](O)[C@H](C)O2)[C@H](C)[C@@H](O[C@@H]2O[C@H](C)C[C@H](N(C)C)[C@H]2O)[C@](C)(O)C[C@@H](C)[C@H](N2CCCCC2)[C@H](C)[C@@H](O)[C@]1(C)O [Compound 72, 9-Deoxo-9-(1-piperidinyl)erythromycin]",> 128,128,16,> 128,> 128,–,4,2,16,8,1,1,20.6,> 44,23.6,> 128,> 128,64
